Consider 19 compounds from patent publication US4801616A, “Diphenylmethanone compounds and anti-inflammatory use thereof” (Eli Lilly and Company, priority 1986, dated 1989).

The target in assay [1] is T1, fatty acid cyclooxygenase (Homo sapiens, UniProt P23219).
T1 construct: The solubilized fatty acid cyclooxygenase was applied to a 440 ml electrofocusing column; from tissue; host or cells: human platelets: microsomes solubilized with Triton X-100, purified by electrofocusing and G-200 Sephadex
T1 sequence (P23219 24-599): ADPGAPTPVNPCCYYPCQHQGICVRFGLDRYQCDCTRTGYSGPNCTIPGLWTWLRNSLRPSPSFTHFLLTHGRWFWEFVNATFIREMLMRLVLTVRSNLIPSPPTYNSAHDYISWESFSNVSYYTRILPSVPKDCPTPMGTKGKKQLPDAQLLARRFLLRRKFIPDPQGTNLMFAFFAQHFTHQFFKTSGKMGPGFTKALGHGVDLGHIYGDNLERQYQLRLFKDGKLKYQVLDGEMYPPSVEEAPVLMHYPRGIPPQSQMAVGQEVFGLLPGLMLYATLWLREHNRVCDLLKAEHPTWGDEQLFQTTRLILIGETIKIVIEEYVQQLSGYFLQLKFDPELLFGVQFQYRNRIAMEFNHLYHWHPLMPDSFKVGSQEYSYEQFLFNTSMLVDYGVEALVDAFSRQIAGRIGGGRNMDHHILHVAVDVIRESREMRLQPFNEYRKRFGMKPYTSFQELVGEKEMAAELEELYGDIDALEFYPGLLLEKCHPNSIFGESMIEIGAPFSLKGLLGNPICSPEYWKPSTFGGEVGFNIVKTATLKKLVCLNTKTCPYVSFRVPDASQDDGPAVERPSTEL
In words: Fatty Acid Cyclooxygenase (FCO) Assay, inhibition of PGE2 formation by purified human platelet enzyme. In kind it is biochemical. The settings on record: for IC50: human platelet microsomal enzyme, pH 8.0, 37° C.; for inhibition at 30 µg/mL: percent inhibition at 30 μg/ml. As for the experimental part:
Fatty Acid Cyclooxygenase (FCO) Assay
Microsomes were prepared from 185 bags of human platelets (each bag containing the platelets from one pint of blood prepared using differential centrifugation procedures). The platelets from approximately 60 bags were prepared at one time. Platelet-rich plasma (500 g) was centrifuged at 10,000×g for 20 minutes, and the platelet pellet was suspended in 100 ml of 0.1M potassium phosphate buffer, pH 8.0, with a Teflon glass homogenizer and sonicated for 5.0 minutes with a Bronson Sonifier (Model 350) in a rosette flask cooled in ice water. Disrupted platelets were centrifuged 15 minutes at 10,000× g. The supernatant was centrifuged at 100,000× g for 90 minutes and the microsomal pellets were homogenized in 25 ml of 20% sucrose containing 1.0% Triton X-100 detergent. After 30 minutes at 4° C., the solubilized microsomes were centrifuged at 100,000× g for 60 minutes. The yellow supernatant was removed and stored at -70 ° C.
The solubilized fatty acid cyclooxygenase was applied to a 440 ml electrofocusing column (LKB-8012) containing 1% phisolytes (Brinkman Instruments, Westburgh, NY), pH 2-11, with the cathode at the top of the column. The enzyme was layered onto the column at the appropriate time so that its sucrose concentration was equal to that of the column gradient. This was accomplished by checking the gradient concentration periodically with a sucrose hand refractometer. Electrofocusing was carried out for 16 hours with an initial voltage of 400 V and a final voltage of 900-1,000 volts. Fractions were collected (20 ml) and assayed for PGE2 formation. Active peak fractions were pooled and concentrated by ultrafiltration (XM 100A) to a volume of 3-5 ml.
Active fractions from electrofocusing were applied to a G-200 Sephadex column (2 cm×46 cm) and eluted with 10 mM potassium phosphate buffer, pH 7.0, in 5 ml fractions. After assay, active fractions were poored and concentrated to 1.0 ml by ultrafiltration (XM 100A), and kept frozen at -70° C.
Enzyme activity was determined by assaying for PGE2 formation by preincubating the enzyme with 10 mmol/l imidazole phosphate buffer, pH 8.0, 2 mmol/l epinephrine, 2 mmol/l methemoglobin, and the test compound (30 μg/ml) in a total volume of 0.2 ml for one minute at 37° C. After preincubation, 5 mmol/l ^14 C-arachidonic acid were added and the mixture was incubated an additional 0.5 minutes at 37° C. The enzyme reaction was stopped by the addition of 2 μl of indomethacin (2 mg/ml) in alcohol.
The reaction mixture was spotted (50 μl) on a silica gel (LQ6D) plate and subjected to TLC. The solvent system consisted of chloroform-methanol-glacial acetic acid (90:5:5, v/v/v) and the relative mobilities were PGF2α =0.235, and PGE2 =0.47. The silica gel on the plate was scraped in 1 cm sections, suspended in 5 ml of the scintillation fluid [5.88 g of 2,5-diphenyloxazole and 118 mg of 1,4 -bis(5-phenyloxazol-2-yl)benzene] dissolved in 650 ml of toluene and 350 ml of Triton X-100) and the radioactivity was determined in an Isocap/300 liquid scintillation counter (Searle Analytic, Inc., Southfield, Mich.). Another 50 μl of the mixture was added to 10 ml of the Triton X-100 based scintillation fluid, and the radioactivity was determined so that the amount of radioactivity recovery from the TLC plate could be ascertained. PGE2 formation for each test compound was determined as a percent of control experiments wherein no test compound was added. Data is expressed in Table I either as the percent inhibition of formation of PGE2 at a test compound concentration of 30 μ g/ml, or as an IC50 for inhibition of PGE2 formation.

Assay [2] concerns the target T2, 5-lipoxygenase (Cavia porcellus, UniProt A0A286X958).
T2 construct: incubating 0.2 ml of the supernatant obtained from the PMNL sonicate with the test compound; from tissue; host or cells: casein-elicited guinea pig peritoneal polymorphonuclear leukocytes (PMNL, more than 95 percent of the cells), sonicated, 30,000 x g supernatant
T2 sequence (A0A286X958 1-674): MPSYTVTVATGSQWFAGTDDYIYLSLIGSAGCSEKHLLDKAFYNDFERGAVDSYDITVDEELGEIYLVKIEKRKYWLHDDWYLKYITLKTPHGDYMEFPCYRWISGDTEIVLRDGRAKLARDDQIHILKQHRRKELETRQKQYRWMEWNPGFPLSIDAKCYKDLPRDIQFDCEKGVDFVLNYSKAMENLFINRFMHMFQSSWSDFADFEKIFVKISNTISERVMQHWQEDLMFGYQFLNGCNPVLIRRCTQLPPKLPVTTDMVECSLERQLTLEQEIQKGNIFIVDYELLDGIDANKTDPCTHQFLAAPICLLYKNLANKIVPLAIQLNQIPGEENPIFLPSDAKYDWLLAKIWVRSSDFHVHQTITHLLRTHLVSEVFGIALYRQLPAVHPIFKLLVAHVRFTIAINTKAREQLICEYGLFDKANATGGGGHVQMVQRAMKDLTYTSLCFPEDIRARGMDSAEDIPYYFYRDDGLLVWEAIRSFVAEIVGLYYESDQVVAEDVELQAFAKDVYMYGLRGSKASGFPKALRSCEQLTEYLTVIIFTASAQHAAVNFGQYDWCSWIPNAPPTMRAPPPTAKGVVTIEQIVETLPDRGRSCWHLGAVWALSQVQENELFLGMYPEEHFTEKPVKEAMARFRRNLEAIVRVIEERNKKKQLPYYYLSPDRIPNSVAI
In words: 5-Lipoxygenase (5-LPO) Assay, inhibition of 5-HETE formation in PMNL sonicate supernatant. Type of assay: biochemical, guinea pig. The note with it: for inhibition at 30 µg/mL: percent inhibition at 30 μg/ml. As for the experimental part:
5-Lipoxygenase (5-LPO) Assay
Ten milliliters of a 2% casein solution were injected intraperitoneally into guinea pigs weighing 250-300 gm. After 16-18 hours, the guinea pigs were killed by suffocation in a carbon dioxide chamber. The peritoneal cavity was infused with 70 ml of saline and 40-50 ml of the fluid were recovered from the cavity. After centrifugation, cell pellets were washed twice in Hank's balanced salt solution (HBSS) without calcium ion.
The cells were then suspended in 5 ml of sodium phosphate buffer, pH 7.1 containing 1 mM EDTA, and 0.1% gelatin. About 20-30×10^7 cells were obtained from one guinea pig.
The PMNL suspension was disrupted by five 1/2 second pulse sonications at the setting of 3 in a Branson Sonifier, Model 350, equipped with a microtip. The sonicates were combined and centrifuged at 30,000× g for 10 minutes. The supernatant was kept frozen at -70° C. until use.
Enzyme activity was determined by assaying for 5-HETE formation by first incubating 0.2 ml of the supernatant obtained from the PMNL sonicate with the test compound, 1 mM CaCl2, 2 mM ATP, and 1 mM GSH for 5 minutes at 37° C. The mixture is treated with 5 μM ^14 C-arachidonicacid and incubated at 37° C. an additional 10 minutes. The enzyme reaction was then stopped by the addition of 10 μl of 1M citric acid and 10μl of an alcohol solution containing 20 mg/ml each of indomethacin and butylated hydroxyanisole (BHA). The reaction mixture was spotted (50 μl on a silica gel plate (Baker TLC plate S1250-PA-19C) and subjected to TLC in a solvent system of ethyl acetate/2,2,4-trimethylpentane/glacial acetic acid/water (90:50:20:100).
The radioactivity of the arachidonic acid and its metabolites (5-HETE and LTB4) was visualized from a developed x-ray film which had been exposed to the TLC plate 1-2 days. The amount of 5-HETE formed was quantitated by scraping the silica gel area corresponding to the spot on the x-ray film, and the radioactivity determined in a Isocap/300 liquid scintillation counter (Searle Analytic, Inc.).
The percent inhibition of the formation of 5-HETE was determined for each concentration of test compound tested as compared to a control experiment wherein no test compound was added. The concentration and percent inhibition values were plotted on semi log paper and the concentration in which formation of 5-HETE is inhibited by 50% (IC50) was determined by interpolation.

Where [3] appears, read: guinea pig PMNL sonicate supernatant, 37° C., 5 μM 14C-arachidonic acid.

Turning to `CCCc1c(OC)ccc(C(=O)c2ccccc2OC)c1OC` [Example 1, (2,4-Dimethoxy-3-propylphenyl)(2-methoxyphenyl)methanone], the IC50 (in general, the concentration that gives 50% inhibition) is 17.5 µM in assay [1] and 0.954 µM in assay [2] (setting [3]).
As to `CCCc1c(OC)ccc(C(=O)c2ccccc2O)c1OC` [Example 2, (2,4-Dimethoxy-3-propylphenyl)(2-hydroxyphenyl)methanone], the IC50 is 9.32 µM in assay [1] and 2.66 µM in assay [2] (setting [3]).
For `CCCc1c(OC)ccc(C(=O)c2ccccc2O)c1O` [Example 3, (2-Hydroxy-4-methoxy-3-propylphenyl)(2-hydroxyphenyl)methanone], in that order: 4.89 µM and 1.05 µM.
As to `CCCc1c(OC(C)=O)ccc(C(=O)c2ccccc2OC(C)=O)c1O` [Example 6, [4-(Acetyloxy)-2-hydroxy-3-propylphenyl][2(acetyloxy)phenyl]methanone], the inhibition (commonly the relative decrease from the control value, in per cent) at 30 µg/mL in assay [1] stood at 12%. The compound also had a half-inhibitory concentration (IC50) in assay [2] (setting [3]) of 11.2 µM.
For the compound `CCCc1cc(C(=O)c2ccccc2O)c(O)c(CCC)c1O` [Example 7, (2,4-Dihydroxy-3,5-dipropylphenyl)(2-hydroxyphenyl)methanone], the IC50 in assay [1] was 17.5 µM; in assay [2] (setting [3]) it was 63.6 µM.
As to `CCCc1c(O)ccc(C(=O)c2ccccc2Cl)c1O` [Example 10, (2-Chlorophenyl)(2,4-dihydroxy-3-propylphenyl)methanone], the inhibition at 30 µg/mL in assay [1] was 100%. The same compound gave a half-maximal inhibitory concentration (IC50) in assay [2] (setting [3]) of 17.2 µM.
Consider `CCCc1c(OCC#N)ccc(C(=O)c2ccccc2O)c1O` [Example 12], for which the IC50 in assay [1] is 32.1 µM; in assay [2] (setting [3]), 22.5 µM.
For `CCCc1c(OCCCCCC#N)ccc(C(=O)c2ccccc2O)c1O` [Example 13, 6-[3-Hydroxy-4-(2-hydroxybenzoyl)-2-propylphenoxy]hexanenitrile], the inhibition at 30 µg/mL in assay [1] came to 40%. For the same compound, the IC50 in assay [2] (setting [3]) was 5.44 µM.
In the case of `CCCc1c(OCCCCCCC#N)ccc(C(=O)c2ccccc2O)c1O` [Example 14, 7-[3-Hydroxy-4-(2-hydroxybenzoyl)-2-propylphenoxy]heptanenitrile], the inhibition at 30 µg/mL in assay [1] turned out to be 37%. Moreover, the IC50 in assay [2] (setting [3]) was 0.524 µM.
On to `CCCc1c(OCc2ccc(C#N)cc2)ccc(C(=O)c2ccccc2O)c1O` [Example 17, 4-([3-Hydroxy-4-(2-hydroxybenzoyl)-2-propylphenoxy]methyl)benzonitrile], for which the inhibition at 30 µg/mL stood at 48% in assay [1] and 94% in assay [2].
The compound `CCCc1c(OCCCCC#N)ccc(C(=O)c2ccccc2OC)c1O` [Example 18, 5-[3-Hydroxy-4-(2-methoxybenzoyl)-2-propylphenoxy]pentanenitrile] returned an inhibition at 30 µg/mL in assay [1] of 15%. For the same compound, in assay [2] (setting [3]), it took 21.8 µM to reach half-maximal inhibition (IC50).
For `CCCc1c(OCCCCC#N)ccc(C(=O)c2ccccc2OC)c1OC` [Example 19, 5-[3-Methoxy-4-(2-methoxybenzoyl)-2-propylphenoxy]pentanenitrile], in that order: 9% and 26.2 µM.
`C=C(c1ccccc1OC)c1ccc(OCCCCC#N)c(CCC)c1OC` [Example 20, 5-(3-Methoxy-4-[1-(2-methoxyphenyl)ethenyl]2-propylphenoxy)pentanenitrile] showed an IC50 in assay [2] (setting [3]) of 79.1 µM.
As to `CCCc1c(OCc2nnn[nH]2)ccc(C(=O)c2ccccc2O)c1O` [Example 21, (2-Hydroxyphenyl)[2-hydroxy-3-propyl-4-(1H-tetrazol-5-ylmethoxy)phenyl]methanone], the inhibition at 30 µg/mL in assay [1] and in assay [2] was 0% throughout.
Turning to `CCCc1c(OCc2ccc(-c3nnn[nH]3)cc2)ccc(C(=O)c2ccccc2O)c1O` [Example 22, (2-Hydroxyphenyl)[2-hydroxy-3-propyl-4([4-(1H-tetrazol-5-yl)phenyl]methoxy)phenyl]methanone], the 50% inhibitory concentration (IC50) in assay [1] is 32.5 µM; in assay [2] (setting [3]), 9.29 µM.
As to `CCCc1c(OCCCCCc2nnn[nH]2)ccc(C(=O)c2ccccc2O)c1O` [Example 24, (2-Hydroxyphenyl)[2-hydroxy-3-propyl-4-([5-(1H-tetrazol-5-yl)pentyl]oxy)phenyl]methanone], in assay [2] (setting [3]), the IC50 was 29.2 µM.
In the case of `CCCc1c(OCCCc2nnn[nH]2)ccc(C(=O)c2ccccc2O)c1O` [Example 27, (2-Hydroxyphenyl)(2-hydroxy-3-propyl-4-[3-(1H-tetrazol-5-yl)propoxy]phenyl)methanone], in assay [1], the inhibition at 30 µg/mL turned out to be 15%. In assay [2] (setting [3]), half-maximal inhibition (IC50) was put at 10.5 µM.
Consider `CCCc1c(OCCCCc2nnn(C)n2)ccc(C(=O)c2ccccc2OC)c1O` [Example 32, (2-Hydroxy-4-[4-(2-methyl-2H-tetrazol-5yl)butoxy]-3-propylphenyl)(2-methoxyphenyl)methanone], for which, in assay [2] (setting [3]), the IC50 is 0.471 µM.
Turning to “(2,3-Dihydro-4-hydroxy-2-methyl-7-benzofuranyl)(2-hydroxyphenyl)methanone [Example 8]”, in assay [2] (setting [3]), the “IC50 5-LPO (inhibition of 5-HETE formation)” value turned out to be 8 µg/mL.
